Experimental findings from patent publication EP0755938B1, “Ligated polyoxometalates and method for their synthesis” (THE B.F. GOODRICH COMPANY, priority 1995, dated 1997) are described below.

Data set [1] in a line: Solubility test in hexane (Table 1). It is filed as physicochemical.
The nature of data set [2]: Solubility of the isolated product in organic solvents, as noted in the synthesis examples. It is filed as physicochemical.
A short description of data set [3]: Catalytic activity test: gel time in polymerizing dicyclopentadiene under RIM conditions. The note with it: 4°C temperature rise from the initial temperature of 40°C; A and B components mixed in adiabatic chamber; Component B 0.66 wt. percent polyoxometalate catalyst. The procedure: The ligated polyoxomolybdate produced in Examples 1-4 were tested for their activity in polymerizing dicyclopentadiene under conditions of a RIM procedure.
Reaction injection molding components were prepared with the following recipes: Component A contained 88.2 wt. percent dicyclopentadiene/7.17 wt. percent cyclopentadiene trimer/3.52 wt. percent butadiene elastomer/0.5 wt. percent diethylaluminumchloride/0.25 wt. percent 2,4-dimethyl-3-pentanol/0.09 wt. percent n-propyl alcohol/0.18 wt. percent silicon tetrachloride.
Component B contained 88.63 wt. percent dicyclopentadiene/7.19 wt. percent cyclopentadiene trimer 3.52 wt. percent butadiene elastomer/0.66 wt. percent polyoxometalate catalyst.
The A and B components were reactivity tested using two pistons and a static mixer. The A and B components were first drawn into their respective piston of the reactivity tester. The components were then heated to 40°C inside the pistons. Next, the contents of the A and B component pistons of the reactivity tester were emptied through a static mixer into a disposable adiabatic chamber.
The temperature increase during the polymerization in the adiabatic chamber was monitored. The gel time is defined as a 4°C temperature rise from the initial temperature of 40°C.

Turning to “[(C8H17)3NCH3]4{(C6H5P)2Mo5O21} [Example 5]”, the Hexane soluble in data set [1] (numeric bound) is reported as less than 5%. Besides, in data set [2], the soluble in cyclohexane entry is “soluble” and the soluble in dicyclopentadiene result is reported as “soluble”.

As for “[(C12H25)3NH4{(C6H5P)2Mo5O21} [Example 34]”, in data set [2], the soluble in cyclohexane entry is given as “soluble” and the soluble in hexane entry is on record as “soluble”.

Regarding “[(C12H25)3NH]2{(C6H4O2)2MoO2} [Example 32]”, the soluble in cyclohexane entry in data set [2] is listed as “soluble”.

With “[(C12H25)3NH]2{(H3NC6H4P)2Mo5O21} [Example 16]”, in data set [1] (result in words), the Hexane soluble entry was “soluble”. Further, in data set [2], the soluble in cyclohexane entry was “soluble” and the soluble in hexane entry was “soluble”.

Regarding “[(C12H25)3NH]2{[(OOC)CH2CH(O)(COO)]2Mo4O12} [Example 30]”, in data set [2], the soluble in cyclohexane entry is reported as “soluble” and the soluble in hexane entry is “soluble”.

Regarding “[(C12H25)3NH]2{[Br2C6H2(O)(COO)]2MoO2} [Example 29]”, in data set [2], the soluble in cyclohexane result is reported as “soluble” and the soluble in hexane entry is “soluble”.

“[(C12H25)3NH]2{[C6H4(O)(COO)]2Mo2O5} [Example 24]”: in data set [2], the soluble in cyclohexane entry was “soluble” and the soluble in hexane result is reported as “soluble”.

As to “[(C12H25)3NH]2{[C10H6(O)(COO)]2Mo2O5} [Example 27]”, in data set [2], the soluble in cyclohexane entry is reported as “soluble” and the soluble in hexane result is recorded as “soluble”.

Turning to “[(C12H25)3NH]2{[CH3C6H3(O)(COO)]2Mo2O5} [Example 28]”, in data set [2], the soluble in cyclohexane result was “soluble” and the soluble in hexane entry is “soluble”.

Take “[(C12H25)3NH]2{[CH3CH(O)(COO)]2Mo2O5} [Example 23]”: in data set [2], the soluble in cyclohexane result is “soluble” and the soluble in hexane result is “soluble”.

For the substance “[(C12H25)3NH]4{(C4H9P)2Mo5O21} [Example 17]”, the Hexane soluble entry in data set [1] (result in words) is “soluble”. Besides, in data set [2], the soluble in cyclohexane result is recorded as “readily soluble” and the “soluble in hot hexane” value is on record as “readily soluble”.

On to “[(C12H25)3NH]4{(C6H5OP)2Mo5O21} [Example 12]”, for which the Hexane soluble in data set [1] (numeric bound) is given as greater than 99%. Besides, in data set [2], the soluble in dicyclopentadiene entry is on record as “readily soluble” and the soluble in hexane entry is on record as “readily soluble”.

With “[(C12H25)3NH]4{(C6H5P)2Mo5O21} [Example 1]”, the gel time in data set [3] came to 4.4 min.

For “[(C12H25)3NH]4{(C6H5P)2Mo5O21} [Example 2]”, in data set [1] (numeric bound), the Hexane soluble was greater than 99%. In addition, in data set [2], the soluble in dicyclopentadiene entry is reported as “readily soluble” and the soluble in hexane result was “readily soluble”. The substance further showed a gel time in data set [3] of 3.7 min.

“[(C12H25)3NH]4{(C6H5P)2Mo5O21} [Example 10]”: in data set [2], the soluble in dicyclopentadiene entry was “readily soluble” and the soluble in hexane entry was “readily soluble”.

With “[(C12H25)3NH]4{(C6H5P)2Mo5O21} [Example 19]”, in data set [2], the soluble in dicyclopentadiene entry is recorded as “readily soluble” and the soluble in hexane result is recorded as “readily soluble”.

Regarding “[(C12H25)3NH]4{(C6H5P)2Mo5O21} [Example 33]”, in data set [2], the soluble in cyclohexane result is “soluble” and the soluble in hexane result was “soluble”.

For the substance “[(C12H25)3NH]4{(C6H5P)2Mo5O21} [Example 35]”, in data set [2], the soluble in cyclohexane result is listed as “soluble” and the soluble in hexane entry is “soluble”.

In data set [1] (numeric bound), “[(C12H25)3NH]4{(C6H5P)2W5O21} [Example 9]” came in with a Hexane soluble greater than 99%. Also, in data set [2], the soluble in dicyclopentadiene result is listed as “soluble” and the soluble in hexane result was “soluble”.

For the substance “[(C12H25)3NH]4{(CH3)3CP)2Mo5O21} [Example 8]”, the Hexane soluble result in data set [1] (result in words) is “soluble”. Moreover, in data set [2] (cyclohexane/hexane mixture), the “soluble in cyclohexane/hexane mixture” value was “soluble”.

Take “[(C12H25)3NH]4{(CH3P)2Mo5O21} [Example 15]”: the Hexane soluble result in data set [1] (result in words) is on record as “soluble”. Also, in data set [2], the soluble in cyclohexane entry is “soluble” and the “soluble in hot hexane” value is “soluble”.

As to “[(C12H25)3NH]4{(HOP)2Mo5O21} [Example 38]”, in data set [2], the soluble in cyclohexane entry is reported as “soluble” and the soluble in hexane result is recorded as “soluble”.

In the case of “[(C12H25)3NH]4{(HP)2Mo5O21} [Example 20]”, the soluble in cyclohexane entry in data set [2] is given as “soluble”.

The substance “[(C12H25)3NH]4{[(HOCH2)2CHOP)]2Mo5O21} [Example 13]” showed a Hexane soluble in data set [1] (numeric bound) greater than 99%. In addition, in data set [2], the soluble in dicyclopentadiene result was “readily soluble” and the soluble in hexane entry was “readily soluble”.

For the substance “[(C12H25)3NH]4{[C6H4(O)(COO)]2Mo4O12} [Example 26]”, in data set [2], the soluble in cyclohexane result is given as “soluble” and the soluble in hexane result is given as “soluble”.

For “[(C12H25)3NH]4{[CH3CH(O)(COO)]2Mo4O12} [Example 22]”, in data set [2], the soluble in cyclohexane result is reported as “soluble” and the soluble in hexane result is reported as “soluble”.

On to “[(C18H37)0.65C16H33)0.35(C14H29)0.05NH]4{(C6H5P)2Mo5O21} [Example 7]”, for which the Hexane soluble in data set [1] (numeric bound) is on record as greater than 99%. In data set [2], the soluble in cyclohexane result was “soluble”, the soluble in dicyclopentadiene result was “soluble” and the soluble in hexane entry is given as “soluble”.

“[(i-C8H17)3NH]4{(C6H5P)2Mo5O21} [Example 4]”: the Hexane soluble in data set [1] (numeric bound) was less than 5%. In data set [2], the soluble in cyclohexane result is reported as “readily soluble” and the “soluble in hot hexane” value is listed as “readily soluble”. Besides, the gel time in data set [3] is 2.5 min.

In the case of “[(i-C10H21)3NH]4{(C6H5P)2Mo3O21} [Example 3]”, in data set [1] (numeric bound), the Hexane soluble is on record as greater than 99%. For the same substance, in data set [2], the soluble in dicyclopentadiene result is listed as “readily soluble” and the soluble in hexane result is “readily soluble”. In addition, the gel time in data set [3] turned out to be 3.4 min.

Turning to “[C12H25NH]4{[HOC(O)CH2CH2P]2Mo5O21]} [Example 14]”, the Hexane soluble result in data set [1] (result in words) was “soluble”.
